Columns and labels:
Type in all cases: cell-based
Conditions in all cases: alone
Cordana musae = test: in vitro-Test with Cordana musae
Alternaria alternata = test: in vitro-Test with Alternaria alternata
Diaporthe citri = test: in vitro-Test with Diaporthe citri
Botrytis cinerea = test: in vitro-Test with Botrytis cinerea
Fusarium culmorum = test: in vitro-Test with Fusarium culmorum
Protocol: Wells of 96-well microtiter plates are filled with 10 μl of a preparation of test compound or compound combination in methanol+emulsifier alkylaryl-polyglycol-ether. Thereafter, the solvent is evaporated in a hood. At the next step, into each well 100 μl of liquid potato dextrose medium is given, that has been amended with an appropriate concentration of spores or mycelium suspension of the test fungus.
With the aid of a photometer the extinction in all wells is measured at the wavelength of 620 nm.
The microtiter plates are incubated at 20° C. and 85% relative humidity. The inhibition of growth is determined again photometrically 3-5 days after the application. Efficacy is calculated in relation to the untreated control, 0% efficacy means fungal growth as high as in untreated control while 100% efficacy means no fungal growth is measured.

Colletotrichum coccodes = test: in vitro-Test with Colletotrichum coccodes

SMILES: CCC(=O)Oc1c(OC)ccnc1C(=O)N[C@@H](C)C(=O)O[C@@H](C)[C@@H](C)c1ccccc1C [(3.017) Metarylpicoxamid, metarylpicoxamid, reference compound]
- Efficacy % (Cordana musae; 0.08 ppm): 44%
- Efficacy % (Alternaria alternata; 10 ppm): 50%
- Efficacy % (Diaporthe citri; 2 ppm): 89%
- Efficacy % (Diaporthe citri; 10 ppm): 89%
- Efficacy % (Botrytis cinerea; 0.8 ppm): 0%
- Efficacy % (Botrytis cinerea; 10 ppm): 20%
- Efficacy % (Fusarium culmorum; 0.08 ppm): 10%
- Efficacy % (Fusarium culmorum; 2 ppm): 0%
- Efficacy % (Fusarium culmorum; 10 ppm): 4%
- Efficacy % (Colletotrichum coccodes; 0.08 ppm): 19%
- Efficacy % (Colletotrichum coccodes; 0.4 ppm): 26%

SMILES: COC(=O)C(O)(Cn1cncn1)c1ccc(Oc2ccc(Cl)cc2)cc1Cl (centres unmarked) [(I-1), Methyl 2-[2-chloro-4-(4-chlorophenoxy)phenyl]-2-hydroxy-3-(1,2,4-triazol-1-yl)propanoate]
- Efficacy % (Cordana musae; 0.02 ppm): 14%
- Efficacy % (Cordana musae; 0.5 ppm): 54%
- Efficacy % (Cordana musae; 2.5 ppm): 97%
- Efficacy % (Alternaria alternata; 0.02 ppm): 3%
- Efficacy % (Alternaria alternata; 0.1 ppm): 0%
- Efficacy % (Alternaria alternata; 0.5 ppm): 18%
- Efficacy % (Diaporthe citri; 0.02 ppm): 0%
- Efficacy % (Diaporthe citri; 0.1 ppm): 0%
- Efficacy % (Diaporthe citri; 2.5 ppm): 100%
- Efficacy % (Botrytis cinerea; 0.02 ppm): 1%
- Efficacy % (Botrytis cinerea; 0.1 ppm): 0%
- Efficacy % (Fusarium culmorum; 2.5 ppm): 25%
- Efficacy % (Colletotrichum coccodes; 0.02 ppm): 0%
- Efficacy % (Colletotrichum coccodes; 0.1 ppm): 0%
- Efficacy % (Colletotrichum coccodes; 2.5 ppm): 91%

— US20240365785A1, “ACTIVE COMPOUND COMBINATIONS AND FUNGICIDE COMPOSITIONS COMPRISING THOSE” (Bayer Aktiengesellschaft, priority 2021, published 2024)
